# Data reported in patent US7605280B2, “Anthraquinone and its derivatives” (Biostatus Limited, priority 1998, dated 2009).
# Columns and labels:
# Assay in all cases: FACScan (Cytometer C) flow cytometric analysis of DRAQ5-labelled cells
# Format in all cases: cell-based, human
# Granulocytes = conditions: 20 μM DRAQ5, 5 min
# Method: (§1) Suspension cultures were analysed by flow cytometry without washing. Human blood was obtained using routine venepuncture of a healthy donor and samples manipulated using standard haematological procedures for the isolation of mononuclear blood cells and surface antigen recognition using antibody panels (see Table 1).
# (§2) Cells were analysed using one of four flow cytometers according to the excitation requirements. • Cytometer A: Single beam high power 647 nm krypton laser excitation: The system was a custom-built cytometer and incorporated an Innova 3000K krypton laser (Coherent Corp., Palo Alto, Calif., USA) tuned to the 647 nm line. Forward light scatter, 90° light scatter and fluorescence emissions were collected for 1×10^4 cells using the 90° light scatter parameter as the master signal. The optical system permitted the analysis of various fluorescence emission wavelengths including: >715 nm (termed low infra-red) and, as reported here >780 nm fluorescence (infra-red ). Forward and 90° light scatter were analysed for the identification of cell debris. Laser power was set at 200 mW and linear amplifiers were used for the fluorescence signals. The analysis optics included a 675 nm cold dichroic mirror, ambient laboratory temperature was approximately 12° C. and the sheath reservoir was maintained at 10° C. Filters were supplied by Melles Griot. Median, mean and mode parameters were calculated for the distribution of fluorescence intensity-values throughout a given cell population. In all experiments, median and mean values produced very similar results. Median values alone are reported since this parameter is less affected by the presence of highly fluorescent cells beyond the upper limit for quantification. • Cytometer B: Dual beam low power 633 nm/high power 488 nm laser excitation: The system was a FACS 440 cell sorter (Becton Dickinson Inc., Cowley, UK) incorporating a Spectra Physics argon ion laser (max 500 mW output), tuned to the 488 nm line (100 mW output), and a secondary Spectra Physics 156 helium-neon laser emitting at 633 nm (emitting <5 mW), with a temporal beam separation of about 30 μsec. Forward light scatter, 90° light scatter and fluorescence emissions were collected for 1×10^4 cells using the forward light scatter parameter as the master signal from the primary 488 nm beam, while side scatter was collected through a 488/10 nm band-pass filter. The analysis optics included: i) a cold dichroic mirror (transmitting >675 nm), ii) fluorescence from fluorescein excited by the 488 nm beam detected at a PMT guarded by a 535/15 nm band-pass filter with no signal delay, and iii) a red-sensitive PMT with an appropriate delay, additionally guarded by a 620 nm long-pass filter, to detect the transmitted beam of DRAQ5-associated fluorescence at wavelengths beyond 675 nm (high-red and extending into the infra red region of the spectrum) Forward and 90° light scatter were analysed to exclude any cell debris. All parameters were acquired at 256 channel resolution with Consort 30 software (Becton Dickinson) and subsequently analysed with WinMDI software (J. Trotter, La Jolla, Calif.). The system employed the same analysis optics when used in the single 488 nm beam mode but with no signal delay for the red-sensitive PMT. • Cytometer C: Single beam, low power 488 nm laser excitation: The system was a FACScan (Becton Dickinson; Inc., Cowley, UK) incorporating an argon ion laser (max 15 mW output), tuned to the 488 nm line. Forward light scatter, 90° light scatter and fluorescence emissions were collected for 1×10^4 cells using the forward light scatter parameter as the master signal. The standard analysis optics provided the FL1 […]/FL3 (red) PMT parameters with pulse analysis performed on the FL3 originating signals. • Cytometer D: Triple beam medium power 633 nm/medium power 488 nm/medium power multiline-UV laser excitation: […]
# Lymphocytes = test system: Lymphocytes
# Method: as §1, §2
# Monocytes = test system: Monocytes
# Method: as §1, §2
# [1] = Preparation 3, 20 μM DRAQ5, 120 min
# [2] = Preparation 3, 4.8 × 10^5/ml, 20 μM DRAQ5, 5 min
# [3] = Preparation 3, 7.5 × 10^5/ml, 20 μM DRAQ5, 5 min
# [4] = Preparation 3 Ficoll-isolated viable mononuclear blood cells, 2.5 × 10^5/ml, 20 μM DRAQ5, 5 min
# [5] = Preparation 4 (Preparation 3 plus surface antigen analysis), 20 μM DRAQ5, 5 min
# [6] = Preparation 5 whole blood, viable cells, 20 μM DRAQ5, 5 min
# [7] = Preparation 6 whole blood, cells lysed and fixed, 20 μM DRAQ5, 5 min
structure (smiles),measurement,setting,value
CN(C)CCNc1ccc(O)c2c1C(=O)c1c(O)ccc(NCCN(C)C)c1C2=O [DRAQ5],Mean fluorescence intensity (±sd) of gated population,"Granulocytes; Preparation 5 whole blood, viable cells",248.4 ± 35.9
same,Mean fluorescence intensity (±sd) of gated population,"Granulocytes; Preparation 6 whole blood, cells lysed and fixed",254.3 ± 31.1
same,Mean fluorescence intensity (±sd) of gated population,Lymphocytes; [1],299.1 ± 23.9
same,Mean fluorescence intensity (±sd) of gated population,Lymphocytes; [2],215.9 ± 26.3
same,Mean fluorescence intensity (±sd) of gated population,Lymphocytes; [3],234.1 ± 27.0
same,Mean fluorescence intensity (±sd) of gated population,Lymphocytes; [4],227.4 ± 24.5
same,Mean fluorescence intensity (±sd) of gated population,Lymphocytes; [5],261.6 ± 26.3
same,Mean fluorescence intensity (±sd) of gated population,Lymphocytes; [6],257.3 ± 35.0
same,Mean fluorescence intensity (±sd) of gated population,Lymphocytes; [7],228.5 ± 28.5
same,Mean fluorescence intensity (±sd) of gated population,Monocytes; [1],342.2 ± 22.4
same,Mean fluorescence intensity (±sd) of gated population,Monocytes; [2],301.8 ± 24.3
same,Mean fluorescence intensity (±sd) of gated population,Monocytes; [3],311.0 ± 30.9
same,Mean fluorescence intensity (±sd) of gated population,Monocytes; [4],302.9 ± 25.4
same,Mean fluorescence intensity (±sd) of gated population,Monocytes; [5],317.9 ± 27.3
same,Mean fluorescence intensity (±sd) of gated population,Monocytes; [6],274.6 ± 41.0
same,Mean fluorescence intensity (±sd) of gated population,Monocytes; [7],240.2 ± 28.1
same,enhanced staining potential of monocytes versus lymphocytes,Monocytes; Preparations 3 and 4,1.14-1.4 fold
